{
  "source": "patent US9636329B2",
  "about": "“Methods of treating cancer with glut inhibitors and oxidative phosphorylation inhibitors” (Northwestern University, priority 2012, dated 2017)",
  "key": {"U266 cells": {"test_system": "U266 cells", "assay": "Cell death by DAPI staining with doxorubicin at 11 mM or 0.5 mM glucose (FIG. 1C)", "format": "cell-based", "details": "resistant U266 cells; glucose-free culture (0.5 mM vs 11 mM glucose); 48 hours", "procedure": "(§1) FIG. 1. Glucose metabolism sustains myeloma cell proliferation, viability and promotes chemoresistance: (A) Primary myeloma cells, normal B lymphocytes (NBL) and four MM cell lines were cultured in medium containing 0 or 5 mM glucose for 48 (NBL, MM cell lines) or 72 (MM Patient) hours. Cell viability was determined by flow cytometric analysis of AnnexinV/DAPI staining and normalized to 5 mM samples. Data are means±SEM (n=2 for MM cell lines and NBL. n=1 for MM Patient sample). (B) MM cell lines were cultured in various glucose concentrations for 72 hours. Viable cell quantities were determined by MTS assay (represented by absorbance at 490 nm) and normalized to 5 mM samples. U266 cells (C) and normal PBMC (D) were cultured in 11 mM or 0.5 mM glucose-containing medium for 48 hours in the presence of the indicated concentrations of doxorubicin. Cell death was determined by OAPI staining. […] Glucose consumption rates and lactate production rates were determined and normalized to control shRNA-expressing cells. (G-I) Cells from part (E) were analyzed for viability and proliferation. (J) JJN3 cells transduced with control or GLUT1-targeted shRNA and analyzed for viability and proliferation. Viable cell densities are expressed as fold change relative to the day 0 reading of control shRNA-expressing cells. Cells from parts G-J were evaluated for viability via trypan blue exclusion. […]"}, "normal PBMC": {"test_system": "normal PBMC", "assay": "Cell death by DAPI staining with doxorubicin at 11 mM or 0.5 mM glucose (FIG. 1D)", "format": "cell-based", "details": "48 hours", "procedure": "as §1"}, "JJN3 cells [1]": {"test_system": "JJN3 cells", "details": "JJN3 cultured in the absence of glucose; metformin 5 mM; 72 hrs", "description": "(§2) To investigate whether mitochondrial oxidative phosphorylation can render MM cells resistant to glucose-deprivation we treated cells with metformin. which is a known mitochondrial complex 1 inhibitor [25-27])."}, "MM cells": {"test_system": "MM cells", "assay": "Viability of MM cells, glucose deprivation / ritonavir / metformin", "format": "cell-based", "details": "absence of glucose; metformin 5 mM; 72 hrs", "description": "as §2"}, "L363 cells [2]": {"test_system": "L363 cells", "assay": "Viability of MM cell lines by Annexin/DAPI staining (FIG. 2)", "format": "cell-based", "details": "glucose-deprived L363 cells + galactose 10 mM; metformin 5 mM; 72 hrs", "description": "as §2"}, "JJN3 cells [3]": {"test_system": "JJN3 cells", "assay": "Oxygen consumption rate (OCR), SeaHorse XF24 bioanalyzer", "format": "cell-based", "details": "resistant JJN3 cells; ritonavir alone", "procedure": "(§3) FIG. 3. […] Cellular viability was assessed before OCR measurements and 400,000 viable cells were plated in 5 replicates. Result is representative of an n=3."}, "L363 cells [4]": {"test_system": "L363 cells", "assay": "Oxygen consumption rate (OCR), SeaHorse XF24 bioanalyzer", "format": "cell-based", "details": "sensitive L363 cells; ritonavir 20 uM; 17 hrs", "procedure": "as §3"}, "GLUT1": {"biological_target": "T1, GLUT1 (Homo sapiens, UniProt P11166)", "T1 sequence (P11166 1-492)": "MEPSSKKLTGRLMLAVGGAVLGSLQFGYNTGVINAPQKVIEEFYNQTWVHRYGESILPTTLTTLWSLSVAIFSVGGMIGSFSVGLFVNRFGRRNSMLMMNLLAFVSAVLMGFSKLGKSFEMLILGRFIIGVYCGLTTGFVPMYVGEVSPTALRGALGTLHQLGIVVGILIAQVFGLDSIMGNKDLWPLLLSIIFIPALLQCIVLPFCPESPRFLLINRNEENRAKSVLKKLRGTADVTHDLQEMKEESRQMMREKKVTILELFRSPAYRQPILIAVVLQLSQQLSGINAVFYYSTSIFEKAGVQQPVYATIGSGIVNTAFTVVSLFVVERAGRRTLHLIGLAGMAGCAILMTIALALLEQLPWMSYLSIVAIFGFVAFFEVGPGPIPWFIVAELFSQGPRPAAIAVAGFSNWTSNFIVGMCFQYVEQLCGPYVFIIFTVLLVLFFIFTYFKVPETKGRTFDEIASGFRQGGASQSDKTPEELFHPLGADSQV", "details": "cited from earlier work"}, "GLUT4": {"biological_target": "T2, GLUT4 (Homo sapiens, UniProt P14672)", "T2 sequence (P14672 1-509)": "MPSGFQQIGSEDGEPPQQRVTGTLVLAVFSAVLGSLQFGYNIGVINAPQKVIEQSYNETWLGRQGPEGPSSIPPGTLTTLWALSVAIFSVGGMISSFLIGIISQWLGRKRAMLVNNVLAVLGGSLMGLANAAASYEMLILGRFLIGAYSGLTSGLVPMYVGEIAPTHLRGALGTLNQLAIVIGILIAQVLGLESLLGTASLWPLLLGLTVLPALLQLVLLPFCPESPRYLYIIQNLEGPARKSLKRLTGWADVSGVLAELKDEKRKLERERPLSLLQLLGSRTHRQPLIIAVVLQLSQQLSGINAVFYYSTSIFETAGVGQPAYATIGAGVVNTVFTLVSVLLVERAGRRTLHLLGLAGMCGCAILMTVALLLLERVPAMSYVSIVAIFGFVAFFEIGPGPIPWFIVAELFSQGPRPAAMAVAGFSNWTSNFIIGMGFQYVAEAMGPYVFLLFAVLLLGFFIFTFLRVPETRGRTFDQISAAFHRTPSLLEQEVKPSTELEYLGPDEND", "details": "cited from earlier work"}, "[5]": {"details": "achieved in humans; read-out: Cmax plasma concentration; cited from earlier work"}, "MM": {"test_system": "MM", "assay": "Ritonavir anti-myeloma effects in myeloma cell lines and patient samples", "format": "cell-based"}, "NCI-60 cell lines": {"test_system": "NCI-60 cell lines", "assay": "NCI-60 panel viability, 48 hr MTS assay (FIG. 5)", "format": "cell-based", "details": "read-out: median reduction of viability", "description": "FIG. 5. […] 48 hr MTS assay, n=3+/−SEM, p<0.05\nGLUT4 activity may be prevalent across multiple cancers. To examine the dependency of other cancers on GLUT4 activity, we utilized the NCI-60 cancer cell line panel. […] The NCI-60 lines are representative of genetic heterogeneity within each cancer group. Therefore, it is possible that we may detect a role for GLUT4 in a subset of cancers within each group connected to a specific genotype."}},
  "data": [
    {"molecule": "COc1cccc2c1C(=O)c1c(O)c3c(c(O)c1C2=O)C[C@@](O)(C(=O)CO)C[C@@H]3O[C@H]1C[C@H](N)[C@H](O)[C@H](C)O1", "note": "[doxorubicin]", "values": [
      {"measurement": "sensitivity to doxorubicin (cell death)", "setting": "U266 cells", "result": "sensitizes"},
      {"measurement": "impact of doxorubicin on normal PBMC (cell death)", "setting": "normal PBMC", "result": "not impacted"}
    ]},
    {"molecule": "CN(C)C(=N)N=C(N)N", "note": "[metformin]", "values": [
      {"measurement": "sensitization of glucose deprived cells to metformin (viability)", "setting": "JJN3 cells [1]", "result": "sensitized to metformin"},
      {"measurement": "sensitization of glucose deprived MM cells to metformin (viability)", "setting": "MM cells", "result": "sensitized to metformin"},
      {"measurement": "reversal of galactose rescue of viability", "setting": "L363 cells [2]", "result": "reverses the metabolic rescue provided by galactose"}
    ]},
    {"molecule": "CC(C)c1nc(CN(C)C(=O)N[C@H](C(=O)N[C@@H](Cc2ccccc2)C[C@H](O)[C@H](Cc2ccccc2)NC(=O)OCc2cncs2)C(C)C)cs1", "note": "[ritonavir]", "values": [
      {"measurement": "oxygen consumption rate (OCR)", "setting": "JJN3 cells [3]", "result": "increase in oxygen consumption rate"},
      {"measurement": "oxygen consumption rate (OCR)", "setting": "L363 cells [4]", "result": "significant reduction in OCR"},
      {"measurement": "inhibition of cytoplasmic glucose binding site", "setting": "GLUT1", "result": "competitively inhibit"},
      {"measurement": "inhibition of cytoplasmic glucose binding site", "setting": "GLUT4", "result": "competitively inhibit"},
      {"measurement": "Cmax", "setting": "[5]", "result": 16, "unit": "µM"},
      {"measurement": "chemosensitization of resistant MM to doxorubicin", "setting": "MM", "result": "chemosensitizing"},
      {"measurement": "glucose inhibitory and growth inhibitory effects in MM", "setting": "MM; physiologically achievable doses of ritonavir", "result": "significant glucose inhibitory and growth inhibitory effects"},
      {"measurement": "cytotoxicity at 20 µM", "setting": "NCI-60 cell lines", "result": "≥ 50", "unit": "%"}
    ]}
  ]
}
